Test results: patent publication US5414008A, “Imidazolyl-substituted phenylpropionic and cinnamic acid derivatives” (Bayer Aktiengesellschaft, priority 1992, dated 1995)

Assays:
[1] = system: smooth muscle cells; experiment: Inhibition of the proliferation of smooth muscle cells (3H-thymidine incorporation); format: cell-based; settings: Sus scrofa, 10^-6 M, smooth muscle cells from pig aortas
Experimental: To determine the antiproliferative action of the compounds, smooth muscle cells are used which are obtained from aortas of pigs by the media explant technique [R.Ross, J. Cell. Biol. 50, 172, 1971]. The cells are inoculated into suitable culture dishes, as a rule 96-hole plates, and cultured in 5% CO2 at 37° C. for 2-3 days in medium 199 containing 7.5% FCS and 7.5% NCS, 2 mmol L-glutamine and 15 mmol HEPES, pH 7.4. The cells are then synchronised by withdrawal of serum for 2-3 days and then stimulated into growth with serum or other factors. Test compounds are simultaneously added. After 16-20 hours, 1 μCi ^3 H-thymidine is added and after a further 4 hours the incorporation of this substance into the TCA-precipitatable DNA of the cells is determined.
To determine the IC50 values, the active compound concentration is calculated which on sequential dilution of the active compound causes half-maximal inhibition of the thymidine incorporation produced by 1% FCS.

[2] = target: T1, angiotensin II receptor (Bos taurus, UniProt P25104); experiment: Angiotensin II receptor binding (3H-angiotensin II) in membrane fractions of bovine adrenal gland cortex; settings: bovine adrenal gland cortex membranes, 3H-angiotensin II 3-5 nM, 60 min, room temperature
T1 construct: Bovine adrenal gland cortices (AGC), which have been freshly removed and carefully freed from gland medulla; from tissue; host or cells: bovine adrenal gland cortex, partially purified membrane fractions
T1 sequence (P25104 1-359): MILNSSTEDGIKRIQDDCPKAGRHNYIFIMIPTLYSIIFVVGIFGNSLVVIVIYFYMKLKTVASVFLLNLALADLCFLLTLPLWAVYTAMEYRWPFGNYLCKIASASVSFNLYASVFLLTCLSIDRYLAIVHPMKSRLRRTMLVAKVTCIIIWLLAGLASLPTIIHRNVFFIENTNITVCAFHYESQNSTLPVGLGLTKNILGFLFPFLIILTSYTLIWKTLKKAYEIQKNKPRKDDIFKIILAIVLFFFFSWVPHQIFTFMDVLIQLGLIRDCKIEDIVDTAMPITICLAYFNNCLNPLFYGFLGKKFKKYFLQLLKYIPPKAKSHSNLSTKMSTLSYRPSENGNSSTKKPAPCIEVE
Experimental: Bovine adrenal gland cortices (AGC), which have been freshly removed and carefully freed from gland medulla, are comminuted in sucrose solution (0.32 M) with the aid of an Ultra-Turrax (Janke & Kunkel, Staufen i.B.) to give a coarse membrane homogenate and partially purified in two centrifugation steps to give membrane fractions. The receptor binding investigations are carried out on partially purified membrane fractions of bovine AGC using radioactive angiotensin II in an assay volume of 0.25 ml, which specifically contains the partially purified membranes (50-80 μg), ^3 H-angiotensin II .(3-5 nM), test buffer solution (50 mMTris, pH 7.2, 5 mM MgCl2) and the substances to be investigated. After an incubation time of 60 min at room temperature, the unbound radioactivity of the samples is separated by means of moistened glass fibre filters (Whatman GF/C) and the bound radioactivity is measured […] in a scintillation cocktail after washing the protein with ice-cold buffer solution (50 mM Tris/HCl, pH 7.4, 5% PEG 6000). The analysis of the raw data was carried out using computer programs to give Ki or IC50 values (Ki : IC50 values corrected for the radioactivity used; IC50 values: concentration at which the substance to be investigated causes a 50% inhibition of the specific binding of the radioligand).

[3] = system: isolated rabbit aorta rings, contraction induced by angiotensin II; experiment: Inhibition of vascular contraction induced by angiotensin II (AII) in isolated rabbit aorta rings in vitro; settings: based on 3rd = submaximal agonist concentration, read-out: IC50 against contractions induced by AII
Experimental: Rabbits of either sex are stunned by a blow to the back of the head and bled out, or in some cases anaesthetized with Nembutal (about 60-80 mg/kg i.v.) and sacrificed by opening the thorax. The thorax aorta is removed, freed from adhering connective tissue, divided into ring segments 1.5 mm wide and individually transferred under an initial loading of about 3.5 g to 10 ml organ baths containing Krebs-Henseleit nutrient solution, which is temperature-controlled at 37° C. and aerated with 95% 02/5 % CO2, of the following composition: 119 mmol/l of NaCl; 2.5mmol/l of CaCl2 ×2H2 O; 1.2 mmol/1 of KH2 PO4; 10mmol/l of glucose; 4.8 mmol/l of KCl; 1.4 mmol/l of MgSO4 ×H2 O and 25 mmol/1 of NaHCO3.
The contractions are detected isometrically by Statham UC2 cells by means of bridge amplifiers (ifd Milheim or DSM Aalen) and digitalised and assessed by means of A/D converters (System 570, Keithley Munich). Agonist dose response curves (DRC) are plotted hourly. With each DRC, 3 or 4 individual concentrations are applied to the baths at a 4 min interval. After the end of the DRC and subsequent washing-out cycles (16 times in each case about 5 sec/min with the abovementioned nutrient solution), a 28-minute rest or incubation phase follows, during which the contractions as a rule reach the staring value again.
The height of the 3rd DRC, in a normal case, is used as a reference variable for the assessment of the test substance to be investigated in further runs, which is applied to the baths in the following DRCs in increasing doses in each case at the start of the incubation period. Each aorta ring is in this case stimulated for the whole day, always with the same agonist.
For the calculation of the IC50 (concentration at which the substance to be investigated causes a 50% inhibition), the effect is in each case based on the 3rd =submaximal agonist concentration.

CCCCc1nc(Cl)c(CO)n1Cc1ccc(C(CC(=O)OC(C)(C)C)c2ccccc2)cc1 (centres unmarked) [Example 18]
inhibition at 1 µM [1]: 90%

CCCCc1nc(Cl)c(CO)n1Cc1ccc(C(CC(=O)O)c2ccccc2)cc1 (centres unmarked) [Example 36]
Ki [2]: 150 nM

CCCCc1nc(Cl)c(C=O)n1Cc1ccc(/C(=C\C(=O)NS(=O)(=O)c2ccc(C)cc2)c2ccccc2)cc1 [Example 40]
inhibition at 1 µM [1]: 57%

CCCCc1nc(Cl)c(CO)n1Cc1ccc(C(=CC(=O)NC(CO)c2ccccc2)c2ccccc2)cc1 (centres unmarked) [Example 20]
IC50 [3]: 360 nM

CCCCc1nc(Cl)c(CO)n1Cc1ccc(/C(=C\C(=O)O)c2ccccc2)cc1 [Example 30]
IC50 [3]: 580 nM
Ki [2]: 340 nM

CCCCc1nc(Cl)c(C=O)n1Cc1ccc(/C(=C/C(=O)O)c2ccccc2)cc1 [Example 31]
IC50 [3]: 360 nM
Ki [2]: 310 nM

CCCCc1nc(Cl)c(C=O)n1Cc1ccc(C(CC(=O)O)C2CCCC2)cc1 (centres unmarked) [Example 37]
Ki [2]: 190 nM

CCCCc1nc(Cl)c(C=O)n1Cc1ccc(C(CC(=O)O)c2ccccc2)cc1 (centres unmarked) [Example 35]
IC50 [3]: 650 nM

CCCCc1nc(Cl)c(C=O)n1Cc1ccc(/C(=C/C(=O)NS(=O)(=O)c2ccc(C)cc2)c2ccccc2)cc1 [Example 39]
inhibition at 1 µM [1]: 59%
